# Test results: PMC9664868, “Dephospho-Coenzyme A Kinase Is an Exploitable Drug Target against Plasmodium falciparum: Identification of Selective Inhibitors by High-Throughput Screening of a Large Chemical Compound Library” (Antimicrobial Agents and Chemotherapy, 2022)
# Entries after “also recorded” stand apart in the source; their conditions may differ.
# Key:
# HsCOASY = target: T1, HsCOASY (Homo sapiens, UniProt Q13057); assay: HsCOASY counterassay; format: biochemical; settings: reciprocal plot analysis
# T1 construct: His tag (pCold1 vector); made in house; host or cells: Escherichia coli BL21Star (DE3)
# T1 sequence (Q13057 1-564): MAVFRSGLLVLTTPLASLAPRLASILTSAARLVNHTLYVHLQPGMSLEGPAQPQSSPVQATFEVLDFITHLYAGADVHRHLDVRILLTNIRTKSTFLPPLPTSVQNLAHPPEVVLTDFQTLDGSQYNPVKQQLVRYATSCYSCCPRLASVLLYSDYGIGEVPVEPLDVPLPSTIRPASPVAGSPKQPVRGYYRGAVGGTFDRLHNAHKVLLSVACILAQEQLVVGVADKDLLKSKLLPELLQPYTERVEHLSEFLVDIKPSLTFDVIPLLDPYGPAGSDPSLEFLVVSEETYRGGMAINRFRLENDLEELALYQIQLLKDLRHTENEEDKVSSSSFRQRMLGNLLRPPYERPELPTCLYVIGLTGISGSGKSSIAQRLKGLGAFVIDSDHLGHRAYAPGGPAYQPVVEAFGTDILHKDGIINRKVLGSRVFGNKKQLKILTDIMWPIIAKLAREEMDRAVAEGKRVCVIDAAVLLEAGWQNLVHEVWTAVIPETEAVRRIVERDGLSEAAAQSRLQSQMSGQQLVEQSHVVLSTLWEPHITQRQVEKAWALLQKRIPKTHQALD
# Method: PfDPCK and HsCOASY activity was measured by quantifying ADP produced in the reaction by a coupling assay using the ADP Hunter Plus assay kit (DiscoverX, USA) according to the manufacturer's instructions. Briefly, enzymatic reactions were carried out in a 20-μL mixture of assay buffer containing 15 mM HEPES, 20 mM NaCl, 1 mM EGTA, 0.02% Tween 20, 10 mM MgCl2, 0.1% bovine gamma globulin, 50 ng of recombinant PfDPCK or HsCOASY, 4 to 256 μM dephospho-CoA, and 5 to 300 μM ATP on a black microplate. All reactions were performed for 2 h, reagents A and B were added, and they were then reincubated for 60 min at 30°C. After reactions were terminated by addition of ADP Hunter Stop solution, the fluorescent signal was measured using SpectraMax Paradigm (Molecular Devices, CA, USA) at excitation and emission wavelengths of 530 and 590 nm, respectively. The kinetic parameters were calculated using the nonlinear regression function using the single saturating concentrations of the substrates by the GraphPad Prism software (GraphPad Software Inc., San Diego, CA). The experiments were repeated three times in triplicate using proteins purified from independent cultures. […]
# The primary hits were reassayed in quadruplicate (n = 4) as in the primary screening. We next tested the confirmed secondary hits to exclude false positives that inhibit coupled fluorescence assay, but not PfDPCK. […]
# HepG2 cell line = assay: Cytotoxicity assay (Cell Counting Kit-8); format: cell-based, human; settings: Homo sapiens, HepG2; Table S1; means ± SEM; read-out: IC50 (μM) HepG2
# Method: Cytotoxicity against human cells was evaluated using the human liver carcinoma HepG2 cell line. HepG2 cells were cultured in D-MED supplemented with 4 mM L-glutamine and 10% fetal bovine serum (FBS) in a 75-cm^2 flask (Violamo) at 37°C. For the cytotoxicity assay, HepG2 cells in semiconfluent state were detached from the flask by incubating the cells with 5 mL D-MEM containing 0.25% trypsin-EDTA. After detachment, HepG2 cells were resuspended in D-MEM-supplemented L-glutamine and FBS, and cell viability was evaluated by incubating cells with 0.4% Trypan blue on a hemocytometer. An approximately 50-μL suspension containing 3,000 cells was dispensed into each well on a 384-well clear-bottom plate using a Multidrop Combi dispenser. Compounds dissolved in DMSO had been dispensed into wells to yield final concentrations of 100, 20, 4, 0.8, and 0.2 μM before cells were added. After cells were added to the plates, they were cultured at 37°C under 5% CO2. After 48 h cultivation, 5 μL of Cell Counting Kit-8 (Dojindo, Japan) was added, and the plates were further incubated for 2 h to assess cell growth and survival.
# PfDPCK = PfDPCK (Plasmodium falciparum, UniProt Q8IL34); assay: Mechanism of PfDPCK inhibition by Lineweaver-Burk plot; format: biochemical
# Method: In order to understand the mechanism of PfDPCK inhibition of the identified compounds, we independently selected compounds from 359 PfDPCK-specific inhibitor candidates (showing >40% inhibition at 10 μM against PfDPCK), based on the more stringent criteria of >80% inhibition at 10 μM against PfDPCK and <10% inhibition against HsCOASY, to yield 30 hits. The hits were prioritized using a multiparameter optimization (MPO) scoring model, developed by MMV (https://www.optibrium.com/downloads/scoring-profiles/mmv-antimalarial-scoring-profile/) based on calculated physicochemical properties, including molecular weight, logP, hydrogen bond donors and acceptors, rotatable bonds, and structural alerts ([20], [21]). We finally chose six representative compounds (A-15, A-33, and A-69, shown in Table S1, and other three compounds; A-126, A-127, and A-128) by manual inspection with “chemist eye” for chemical attractiveness (druglikeness). […] Furthermore, two compounds, A-33 and A-69, are considered to be pan-assay interference compounds (PAINS) (phenolic Mannich base) ([22]). We consequently focused on two commercially available compounds (A-15 and A-127) (Fig. 6A) and investigated their mechanism of inhibition. We differentiated the type of inhibition by Lineweaver-Burk plot with various concentrations of one substrate (dephospho-CoA or ATP), while the other substrate was given in saturating concentrations in kinetic studies (Fig. 5).
# FIG 5 Lineweaver-Burk plots showing inhibition of two compounds, compound A-15 (A, B) and compound A-127 (C, D) on the PfDPCK activity. The enzymatic activities were determined with various concentrations of dephospho-CoA and 200 μM ATP (A, C) or various concentrations of ATP and 200 μM dephospho-CoA (B, D) in the presence of a range of concentrations of inhibitors. Data are shown in means ± SEMs of triplicate.
# PfDPCK and HsCOASY activity was measured by quantifying ADP produced in the reaction by a coupling assay using the ADP Hunter Plus assay kit (DiscoverX, USA) according to the manufacturer's instructions. Briefly, enzymatic reactions were carried out in a 20-μL mixture of assay buffer containing 15 mM HEPES, 20 mM NaCl, 1 mM EGTA, 0.02% Tween 20, 10 mM MgCl2, 0.1% bovine gamma globulin, 50 ng of recombinant PfDPCK or HsCOASY, 4 to 256 μM dephospho-CoA, and 5 to 300 μM ATP on a black microplate. All reactions were performed for 2 h, reagents A and B were added, and they were then reincubated for 60 min at 30°C. After reactions were terminated by addition of ADP Hunter Stop solution, the fluorescent signal was measured using SpectraMax Paradigm (Molecular Devices, CA, USA) at excitation and emission wavelengths of 530 and 590 nm, respectively. The kinetic parameters were calculated using the nonlinear regression function using the single saturating concentrations of the substrates by the GraphPad Prism software (GraphPad Software Inc., San Diego, CA). The experiments were repeated three times in triplicate using proteins purified from independent cultures. Kinetic values of enzymes are presented as the means ± standard errors (SEs).
# Chain of PfDPCK (Q8IL34 entry or part of it): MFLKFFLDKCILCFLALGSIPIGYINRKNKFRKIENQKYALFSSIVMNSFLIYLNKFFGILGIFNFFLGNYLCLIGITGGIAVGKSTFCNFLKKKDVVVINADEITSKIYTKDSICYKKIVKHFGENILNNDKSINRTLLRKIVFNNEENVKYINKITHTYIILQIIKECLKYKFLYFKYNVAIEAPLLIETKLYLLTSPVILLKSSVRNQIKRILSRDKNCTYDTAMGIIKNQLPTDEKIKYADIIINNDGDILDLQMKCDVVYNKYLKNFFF
smiles,measurement,setting,value
CC(C)(C)c1cc(C(=O)Cn2c(NCCO)nc3ccccc32)cc(C(C)(C)C)c1O [Compound A-15],inhibition of HsCOASY,HsCOASY,"inhibits PfDPCK, but not HsCOASY"
same,IC50,HepG2 cell line,29.9 ± 3.61 µM
same,Ki,"PfDPCK; in respect of ATP, 200 μM dephospho-CoA",10.4 µM
same,type of inhibition,"PfDPCK; in respect of dephospho-CoA and ATP, Lineweaver-Burk plot",competitively inhibits; also recorded: competitive inhibition
same,Ki,"PfDPCK; in respect of dephospho-CoA, 200 μM ATP",0.47 µM
